According to patent US11485974B2, “Method of fixing and expressing physiologically active substance” (STELIC INSTITUTE & CO., priority 2007, dated 2022):

How the values were obtained:
[1] = Retention of iopamidol injected into the submucous tissue of rat large intestine, X-ray photography and CT scanning; assay type: in vivo, Wistar rats; details: normal rats, 20 μl injected into submucous tissue of the left colon, after one hour
Experimental: Next, the retention of physiologically active substances in the submucous tissue of normal rats was analyzed by diagnostic imaging using X-ray and CT, which are routinely used clinically. Twelve-week-old male Wistar rats were anesthetized with Nembutal, and then an ultrathin endoscope for humans was inserted into the large intestines and 20 μl of iopamidol, a contrast medium, was endoscopically injected alone into the submucous tissue of the left colon using a local injection needle.
X-ray photography and CT scanning was carried out after one hour.

[2] = test system: DSS-induced colitis model mice; experiment: Disease activity index (DAI: stool consistency, fecal occult blood) in DSS colitis model mice; assay type: in vivo, C57BL/6J mice; details: compared to the control group
Experimental: (§1) A colitis model mice was prepared by allowing C57BL/6J mice (female, six weeks old; CLEA Japan Inc.) to freely drink […] containing 3% dextran sulfate sodium (DSS; Wako Pure Chemical Industries Inc.) for five days. This DSS-induced colitis model has excellent reproducibility, and is thus used widely as a standard experimental model for inflammatory bowel diseases such as mouse ulcerative colitis and Crohn's disease (Sasaki N, J Inflamm. 2005 2: 13; as a review, Pucilowska J B et al. Am J Physiol Gastroenterol Liver Physiol. 279: G653-G659, 2000).
The same GalNAc4S-6ST siRNA (0.3 μg/head) as used in Example 5 was injected to the submucous tissue of mouse large intestine, while the mice were allowed to drink water containing 3% DSS. The control groups used were: a group injected with scramble siRNA (“BLOCK-iT Fluorescent Oligo (Invitrogen)” in Example 4) and an untreated group in which mice were allowed to drink DSS water only. The body weight and disease activity index (DAI) score (Kihara M, Gut. 2003 52: 713-9) were recorded for five days while the mice were allowed to drink water containing 3% DDS. […]
The colitis activity index (DAI) was analyzed by the same method described in Example 7.
The first day (day 0) of feeding with DSS water is defined as 1, and the stool consistency and fecal occult blood in each mouse were recorded. […]

[3] = test system: DSS-induced colitis model mice; experiment: Histology (hematoxylin-eosin) of large intestine in DSS colitis model mice; assay type: in vivo, C57BL/6J mice; details: HE-stained sections of large intestine
Experimental: as §1
(§2) The same GalNAc4S-6ST siRNA (0.3 μg/head) as used in Example 5 was injected to the submucous tissue of mouse large intestine, while the mice were allowed to drink water containing 3% DSS. The control groups used were: a group injected with scramble siRNA (“BLOCK-iT Fluorescent Oligo (Invitrogen)” in Example 4) and an untreated group in which mice were allowed to drink DSS water only. The body weight and disease activity index (DAI) score (Kihara M, Gut. 2003 52: 713-9) were recorded for five days while the mice were allowed to drink water containing 3% DDS. Then, the mice were sacrificed on the fifth day.
Next, tissue sections were prepared from collected large intestines and stained with hematoxylin-eosin. The resulting histological images were analyzed (FIG. 10).

ribonuclease (RNase A) = target: T1, ribonuclease (RNase A) (Bos taurus, UniProt P61823); experiment: Stability test for GalNAc4S-6ST siRNA at 37° C., agarose gel electrophoresis; assay type: in vitro ADME
T1 construct: purchased SIGMA
T1 sequence (P61823 27-150): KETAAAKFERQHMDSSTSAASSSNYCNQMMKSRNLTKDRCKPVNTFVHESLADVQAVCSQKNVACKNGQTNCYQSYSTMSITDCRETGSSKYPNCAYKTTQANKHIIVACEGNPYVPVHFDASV
Experimental: In this Example, GalNAc4S-6ST siRNA, the same substance used in Example 5, was assessed for its stability. First, test solutions were prepared by adding 1 μg of GalNAc4S-6ST siRNA to 200 μl of sterile phosphate buffer or 0.1% atelocollagen and stirring the mixtures at 4° C. for 20 minutes. 0.1% atelocollagen was prepared by combining 1% atelocollagen (Koken) with ten volumes of sterile phosphate buffer and stirring the mixture at 4° C. for 16 hours. Then, 40 μg of a ribonuclease (RNase A; SIGMA) was added to the prepared test solutions of GalNAc4S-6ST siRNA, and the mixtures were incubated to react at 37° C. The reaction time was 5, 15, 30, 45, or 60 minutes. 500 μl of RNA iso (Takara Bio) was added to the test solutions after reaction. The mixtures were incubated on ice for five minutes, and centrifuged at 14,000 rpm for 15 minutes. The resulting supernatants were collected, and 500 μl of isopropanol and 1 μl of glycogen (Invitrogen) were added thereto. The mixtures were incubated for 15 minutes, and centrifuged at 14,000 rpm for 15 minutes. The supernatants were discarded, and the pellets were saved. 1 ml of 75% ethanol was added to the pellets, and the mixtures were centrifuged at 14,000 rpm for 15 minutes. After this step was repeated twice, the pellets were dried and dissolved in 25 μl of injection solvent (Otsuka Pharmaceutical). 10 μl each of the solutions were combined with 2 μl of Loading Dye (Invitrogen). 3.5% agarose gel was prepared using UltraPure Agarose (Invitrogen), and the samples were electrophoresed in a Mupid-2 plus (ADVANCE) at 100 V for 20 minutes. After electrophoresis, the gel was shaken for 20 minutes in a stain solution prepared by 10,000 times diluting Ethidium Bromide (Invitrogen) with 1×LoTE (composition: 3 mM Tris-HCl (pH 7.5) (Invitrogen), 0.2 mM EDTA (pH 7.5) (Sigma Aldrich Japan)). The gel was photographed with Fluourchem (Innotech) and analyzed.

[4] = Nucleic acid kinetics in the submucous tissue of mouse large intestine, siRNA concentration by ELISA; assay type: in vivo; details: mice, 0.3 μg/10 μl at three sites
Experimental: Next, in order to also confirm the retention of injected siRNA in the submucous tissue of the large intestine by biochemical methods, the concentration of siRNA in the large intestine was determined by using the ELISA method for direct quantitation of siRNA according to a published report (Rosie Z et al. Analytical Biochem. 304: 19-25, 2002). The nucleotide sequences of GalNac 4S-6ST siRNA used in this Example are shown below, but the sequences are not limited to the example shown herein.
GalNAc4S-6ST siRNA (0.3 μg/10 μl) was injected at three sites to the submucous tissue of large intestine in eight-week-old female C57BL/6.1 mice by the same method described in Example 3. The mice were sacrificed 0.5, 3, 6, or 24 hours after injection to prepare histological samples of the large intestine. The siRNA concentrations were determined by the ELISA methods.
1 μg/ml siRNA before injection was used as a positive control without any additional treatment.

[5] = test system: GalNAc4S-6ST gene expression; experiment: Gene knockdown by siRNA administered into the submucous tissue of large intestine in DSS colitis model mice, quantitative PCR; assay type: in vivo, mouse; details: 0.3 μg/head into submucous tissue of large intestine, day 5
Experimental: as §1
The same GalNAc4S-6ST siRNA (0.3 μg/head) as used in Example 5 was injected to the submucous tissue of mouse large intestine, while the mice were allowed to drink water containing 3% DSS. […] The body weight and disease activity index (DAI) score (Kihara M, Gut. 2003 52: 713-9) were recorded for five days while the mice were allowed to drink water containing 3% DDS. […]
1 ml of RNA iso (Takara Bio) was added to 50 mg each of excised organs (large intestine and kidney). […] The RNA concentrations of extracted samples in UV plates (Corning Costar) were determined using a plate reader (POWER Wave XS; BIO-TEK).
Next, reverse transcription reaction (cDNA synthesis) is conducted by the following procedure. […] For quantitative PCR, SYBR Premix Kit (TAKARA) and Real-time PCR thermal cycler DICE (TAKARA) were used. […]

[6] = test system: DSS-induced colitis model mice; experiment: Length of the large intestine (colonic contraction) in DSS colitis model mice; assay type: in vivo, C57BL/6J mice; details: day five, p<0.05, t test
Experimental: as §1, §2
Next, the length of the large intestine was measured after sacrificing mice on day five. […] The length of the large intestine is a crucial indicator that reflects the intestinal fibrosis.

[7] = presence of ribonuclease (RNase A), phosphate buffer

C[C@H](O)C(=O)Nc1c(I)c(C(=O)NC(CO)CO)c(I)c(C(=O)NC(CO)CO)c1I [iopamidol, N,N′-Bis[2-hydroxy-1-(hydroxymethyl)ethyl]-5-[(2S)-2-hydroxypropanoylamino]-2,4,6-triiodoisophthalamide]
Retention at the injection site, CT images [1]: retained specifically at the injection sites and did not spread to other slices | Retention at the injection site, X-ray images [1]: retained in the submucous tissue of the colon without intraperitoneal leakage and transfer to other sections

GalNAc4S-6ST siRNA: siRNA of SEQ ID NOs: 1 and 2 against GalNAc4S-6ST (Gene Bank accession number NM_015892), Hokkaido System Science (chain 1 GGAGCAGAGCAAGAUGAAUACAAUCAG; chain 2 GAUUGUAUUCAUCUUGCUCUGCUCCAU; listed as RNA, further chemistry not given here)
DAI score (stool consistency and fecal occult blood) [2]: lower | Epithelial disruption, infiltration of inflammatory cells into lamina propria and submucosa, and thickening of muscular layer [3]: markedly suppressed | Stability (gel band) (ribonuclease (RNase A); absence of ribonuclease, sterile phosphate buffer, after 60 minutes): relatively stable | Time after which the band disappeared (ribonuclease (RNase A); [7]): 30 min | Time point at which siRNA degradation was observed (ribonuclease (RNase A); [7]): 15 min | Gel band (ribonuclease (RNase A); siRNA embedded in 0.1% atelocollagen, ribonuclease (RNase A), after 30 minutes): faint but detectable | siRNA concentration in the large intestine ([4]; 0.5 hour after injection): retained at a very high concentration | siRNA concentration in the large intestine ([4]; 24 hours after injection): continually remained retained | siRNA concentration in the large intestine ([4]; three hours after injection): decreased by half | Expression of GalNAc4S-6ST in the kidney [5]: remained unchanged | Expression of GalNAc4S-6ST in the large intestine [5]: significantly suppressed the increased expression | Colonic contraction (length of the large intestine) [6]: significantly suppressed
